In patent US6524556B2, “Aerosol compositions” (Fujisawa Pharmaceutical Co., Ltd., priority 1995, dated 2003):

How the values were obtained:
Type in all cases: physicochemical
[1] = Dissolution test of mist particles (JP12 paddle method); conditions: for T 50% (dissolution rate of FK506): distilled water 37° C., paddle 50 rpm
Procedure: Dissolution Test FK506 dissolution from the mist particles after firing FK506 aerosol composition was examined in distilled water at 37° C. using the paddle method at 50 rpm, according to the dissolution test method in JP12. The emitted dose from aerosol composition was adjusted to be one mg FK506 as a total in the test fluid. FK506 was measured by HPLC method. The FK506 aerosol compositions were prepared according to a similar manner to that of Example 2.

[2] = Aerodynamic particle size distribution (USP23 Apparatus 1, multistage cascade impactor); conditions: for Mass Median Aerodynamic Diameter: 0.05% FK506 aerosol composition
Procedure: Aerodynamic Particle Size Distribution According to the conventional method in USP23 (Apparatus 1), the aerodynamic particle size distribution was assessed from FK506 amount in each stage after applying one mg FK506 to multistage cascade impactor by firing FK506 aerosol composition. FK506 measurement was conducted by HPLC method and the MMAD was calculated from the particle size distribution. The FK506 aerosol compositions were prepared according to a similar manner to that of the below-mentioned Example 2.

[3] = Effect of MCT content on the solubility of FK506 in HFAs; design: key to Solubility of FK506 in HFAs (solution or suspension): ∘: solution; —: suspension
Procedure: The addition of MCT enables the filling of FK506 as a solution into aerosol system. As a result, the change of spray performance will not be caused by aggregation of FK506 crystalline particles and the emitted dose uniformity of FK506 can be more reliable. The aerosol compositions used in this study were prepared according to a similar manner to that of Example 2.

T 50% (dissolution rate of FK506) ([1]; HFA-134a, MCT content 0.5%, FK506 0.05%): 29 min | T 50% (dissolution rate of FK506) ([1]; HFA-134a, MCT content 0.5%, FK506 0.2%): 11 min | T 50% (dissolution rate of FK506) ([1]; HFA-134a, MCT content 2%, FK506 0.05%): 41 min | T 50% (dissolution rate of FK506) ([1]; HFA-134a, MCT content 2%, FK506 0.2%): 25 min | T 50% (dissolution rate of FK506) ([1]; HFA-227, MCT content 0%, FK506 0.05%): 5 min | T 50% (dissolution rate of FK506) ([1]; HFA-227, MCT content 0%, FK506 0.2%): 9 min | T 50% (dissolution rate of FK506) ([1]; HFA-227, MCT content 0.5%, FK506 0.05%): 30 min | T 50% (dissolution rate of FK506) ([1]; HFA-227, MCT content 0.5%, FK506 0.2%): 12 min | T 50% (dissolution rate of FK506) ([1]; HFA-227, MCT content 1%, FK506 0.05%): 38 min | T 50% (dissolution rate of FK506) ([1]; HFA-227, MCT content 1%, FK506 0.2%): 15 min | T 50% (dissolution rate of FK506) ([1]; HFA-227, MCT content 2%, FK506 0.05%): 43 min | T 50% (dissolution rate of FK506) ([1]; HFA-227, MCT content 2%, FK506 0.2%): 28 min | T 50% (dissolution rate of FK506) ([1]; HFA-227, MCT content 5%, FK506 0.05%): 51 min | T 50% (dissolution rate of FK506) ([1]; HFA-227, MCT content 5%, FK506 0.2%): 37 min | Release rate of FK506 from the mist particles, trend ([1]; addition of MCT): declined with addition of MCT | Mass Median Aerodynamic Diameter ([2]; propellant HFA-134a, MCT content 0.5%): 1.6 μm | Mass Median Aerodynamic Diameter ([2]; propellant HFA-227, MCT content 0.05%): 1.5 μm | Mass Median Aerodynamic Diameter ([2]; propellant HFA-227, MCT content 0.5%): 1.7 μm | Mass Median Aerodynamic Diameter ([2]; propellant HFA-227, MCT content 1%): 2.5 μm | Mass Median Aerodynamic Diameter ([2]; propellant HFA-227, MCT content 2%): 3.1 μm | Mass Median Aerodynamic Diameter ([2]; propellant HFA-227, MCT content 5%): 4.0 μm | Solubility of FK506 in HFAs (solution or suspension) ([3]; MCT content 0.05%, FK506 content 0.05 w/v % in HFA-134a): ∘ | Solubility of FK506 in HFAs (solution or suspension) ([3]; MCT content 0.05%, FK506 content 0.05 w/v % in HFA-227): ∘ | Solubility of FK506 in HFAs (solution or suspension) ([3]; MCT content 0.05%, FK506 content 0.1 w/v % in HFA-227): — | Solubility of FK506 in HFAs (solution or suspension) ([3]; MCT content 0.05%, FK506 content 0.2 w/v % in HFA-134a): — | Solubility of FK506 in HFAs (solution or suspension) ([3]; MCT content 0.05%, FK506 content 0.2 w/v % in HFA-227): — | Solubility of FK506 in HFAs (solution or suspension) ([3]; MCT content 0.05%, FK506 content 0.5 w/v % in HFA-227): — | Solubility of FK506 in HFAs (solution or suspension) ([3]; MCT content 0.5%, FK506 content 0.05 w/v % in HFA-134a): ∘ | Solubility of FK506 in HFAs (solution or suspension) ([3]; MCT content 0.5%, FK506 content 0.05 w/v % in HFA-227): ∘ | Solubility of FK506 in HFAs (solution or suspension) ([3]; MCT content 0.5%, FK506 content 0.1 w/v % in HFA-227): ∘ | Solubility of FK506 in HFAs (solution or suspension) ([3]; MCT content 0.5%, FK506 content 0.2 w/v % in HFA-134a): — | Solubility of FK506 in HFAs (solution or suspension) ([3]; MCT content 0.5%, FK506 content 0.2 w/v % in HFA-227): — | Solubility of FK506 in HFAs (solution or suspension) ([3]; MCT content 0.5%, FK506 content 0.5 w/v % in HFA-227): — | Solubility of FK506 in HFAs (solution or suspension) ([3]; MCT content 2%, FK506 content 0.05 w/v % in HFA-134a): ∘ | Solubility of FK506 in HFAs (solution or suspension) ([3]; MCT content 2%, FK506 content 0.05 w/v % in HFA-227): ∘ | Solubility of FK506 in HFAs (solution or suspension) ([3]; MCT content 2%, FK506 content 0.1 w/v % in HFA-227): ∘ | Solubility of FK506 in HFAs (solution or suspension) ([3]; MCT content 2%, FK506 content 0.2 w/v % in HFA-134a): ∘ | Solubility of FK506 in HFAs (solution or suspension) ([3]; MCT content 2%, FK506 content 0.2 w/v % in HFA-227): ∘ | Solubility of FK506 in HFAs (solution or suspension) ([3]; MCT content 2%, FK506 content 0.5 w/v % in HFA-227): — | Solubility of FK506 in HFAs (solution or suspension) ([3]; MCT content 5%, FK506 content 0.05 w/v % in HFA-134a): ∘ | Solubility of FK506 in HFAs (solution or suspension) ([3]; MCT content 5%, FK506 content 0.05 w/v % in HFA-227): ∘ | Solubility of FK506 in HFAs (solution or suspension) ([3]; MCT content 5%, FK506 content 0.1 w/v % in HFA-227): ∘ | Solubility of FK506 in HFAs (solution or suspension) ([3]; MCT content 5%, FK506 content 0.2 w/v % in HFA-134a): ∘ | Solubility of FK506 in HFAs (solution or suspension) ([3]; MCT content 5%, FK506 content 0.2 w/v % in HFA-227): ∘ | Solubility of FK506 in HFAs (solution or suspension) ([3]; MCT content 5%, FK506 content 0.5 w/v % in HFA-227): — | Solubility of FK506 (change) ([3]; by mixing MCT into liquefied hydrofluoroalkanes): increased up
Compound: C=CC[C@@H]1/C=C(\C)C[C@H](C)C[C@H](OC)[C@H]2O[C@@](O)(C(=O)C(=O)N3CCCC[C@H]3C(=O)O[C@H](/C(C)=C/[C@@H]3CC[C@@H](O)[C@H](OC)C3)[C@H](C)[C@@H](O)CC1=O)[C@H](C)C[C@@H]2OC [FK506, 17-allyl-1,14-dihydroxy-12-[2-(4-hydroxy-3-methoxycyclohexyl)-1-methylvinyl]-23,25-dimethoxy-13,19,21,27-tetramethyl-11,28-dioxa-4-azatricyclo-[22.3.1.0^4,9]octacos-18-ene-2,3,10,16-tetraone]
Mass median aerodynamic diameter (MMAD), trend ([2]; FK506 aerosol composition, addition of MCT): increased in proportion to MCT amount added
